Source: patent US8513195B2, “Treatment of mood and anxiety disorders” (priority 2008, dated 2013)

How the values were obtained:
[1] = test system: mice; assay: mouse tail suspension test (TST); format: in vivo; conditions: i.p., peptide 90 min, desipramine and fluoxetine (20 mg/kg) 30 min prior to test, 5 min trial
Experimental: (§1) In these tests experimental animals are exposed to inescapable aversive situations (hanging by the tail, being into the water) and in response show alternate periods of agitation and immobility reflecting “attempts to escape” and ‘behavioural resignation” respectively.
(§2) The details of the experimental protocols used are as follows: mice were injected i.p. with vehicle, different doses of the peptide TAT-DEF-Elk-1, of a scrambled peptide (serving as control), of the MEK inhibitor SL327, or with the reference antidepressants fluoxetine (20 mg/kg) or desipramine (20 mg/kg), at appropriate time points before the test trial.
(§3) In the TST, each mouse was tested in an individual cubicle while suspended from a tail hanger with adhesive tape wrapped around its tail (1.5-2 cm from tip) 80 cm above the floor. The trial was conducted for 5 min, during which the duration of immobility was measured automatically (BIOSEB, France). For the FST, mice were placed in clear plastic cylinders (diameter 10 cm; height 25 cm) filled with water at 6 cm height (22-25° C.) for 6 min. A blinded observer scored the duration of immobility manually during the last 4 min of the 6-min test.

[2] = test system: mice; assay: mouse forced swimming test (FST); format: in vivo; conditions: i.p., peptide 90 min, desipramine (20 mg/kg) 30 min prior to test, last 4 min of 6-min test
Experimental: as §1, §2, §3

[3] = test system: mice; assay: social defeat stress (SDS) test; format: in vivo, mouse; conditions: peptide 1 mg/kg; for SDS-induced social avoidance (time spend interacting, TSI): defeated mice, treated 15 or 21 days
Description: (A) Data represent means+/−SE of time spend interacting (TSI) with the cage, in the absence (non-hatched bars) or presence (hatched bars) of the target. When target is present, control mice engage in active social behaviour, seen as an increase of TSI (panel a), while vehicle-treated defeated mice (panel b; white bars) show lower TSI, indicating social avoidance.
In the social defeat stress test (SDS), mice were exposed repeatedly (2 week) to aggressive mice; controls were gently handled. Subsequently, the aggressors were removed. Mice were treated with vehicle or TAT-DEF-Elk1 (1 mg/kg) for 15 or 21 days, and then tested for SDS-induced social avoidance. The test box contained a perforated plastic cage that was empty for the first test session and that held a neutral mouse (target) for the second test session.

[4] = test system: mice; assay: unpredictable chronic mild stress paradigm (UCMS); format: in vivo, mouse; conditions: for UCMS-induced immobility in the TST / sucrose preference (% of sugar of total consumption): end of 3-week UCMS, peptide 1 mg/kg or fluoxetine 20 mg/kg once daily
Description: We have also assessed the effects of the TAT-DEF-Elk1 peptide in the unpredictable chronic mild stress paradigm ([…] is used as a pertinent model of depression with aetiological validity. In UCMS protocols animals are subjected for a long period to different non-anticipated stressors. Chronic exposure to stress results to a syndrome in mice that reproduces symptoms of depression, including increased resignation, anxiety-like behavior, decreased consumption of palatable food, and physiological changes. Chronic administration of compounds with antidepressant activity reverses these changes. The protocol that we have used consists of three weeks of UCMS, during which mice were subjected to various stressors according to a 'random' schedule. Body weight and coat state were assessed weekly, as markers of the progression of the UCMS-evoked syndrome. At the end of the 3 week period the emotional state of the mice was tested in behavioral tests of emotionality and of depression-like behaviors (FIG. 3A). Experimental groups of mice were as follows: (i) non-stressed mice: these were group housed and were handled and maintained under standard laboratory conditions (Group 1; FIG. 3B), (ii) stressed mice: these were maintained under standard laboratory conditions but were isolated in small individual cages. During the three week protocol they were exposed to three mild stressors per day. Stressed-mice were treated either with vehicle (Group 2; FIG. 3B), with the peptide (1 mg/kg; once daily), or with the reference antidepressant fluoxetine (20 mg/kg; once daily) (Group 3; FIG. 3B). Treatment with vehicle or compounds started at the beginning of the UCMS and lasted throughout the three week period. At the end of the UCMS paradigm, mice were tested for depressive-like responses, such as passivity and resignation measured as increased immobility in the tail suspension test and anhedonia measured as the preference to sucrose.

[5] = test system: mice; conditions: described in the literature; cited from earlier work
[6] = test system: Elk1; assay: tail suspension-induced Elk1 phosphorylation in medial prefrontal cortex (immunochemistry); format: in vivo, mouse; conditions: 2 mg/kg, 1 h30 before 10 min TST; perfused 20 min after start
Experimental: (§4) In the first experiment, TAT-DEF-Elk-1 peptide (2 mg/kg) or vehicle were administrated 1 h30 before a 10 min tail suspension trial (TST). Mice were perfused 20 min after starting the TST test and phosphorylation of ERK and Elk1 was assessed with immunochemistry.

[7] = test system: plasma corticosterone; assay: plasma corticosterone after 30 min restraint stress (RIA); format: in vivo, C57BL/6J mice
Experimental: Data represent means+/−SE of plasma corticosterone in banal conditions (non-stressed, light grey bars) and immediately after a 30-min restraint stress (dark grey bars); vehicle or the TAT-DEF-Elk1 peptide were administered […] before the beginning of stress; *p<0.05 as compared to non-stressed; #p<0.05 as compared to vehicle-treated.
In the second experiment C57BL/6J mice (10 weeks old) were injected with TAT-DEF-Elk1 peptide or vehicle; 1 h30 after the injection the mice were subjected to a 30 min restraint stress i.e. mice were confined individually in a 50 ml Falcon tube in which a hole was made at the top for the mice to breathe. Mice were decapitated directly after restraint, blood was collected in 2 ml eppendorfs containing EDTA at 4° C. Samples were centrifuged for 15 min at 760 g, plasma was collected and corticosterone assessed using the Corticosterone Double Antibody 125-I RIA kit (MP BIOMEDICAL).

[8] = test system: ERK; assay: tail suspension-induced ERK phosphorylation (immunochemistry); format: in vivo, mouse; conditions: 2 mg/kg, 1 h30 before 10 min TST; perfused 20 min after start
Experimental: as §4

[9] = stressed mice, peptide 1 mg/kg once daily for three weeks

Molecule | immobility in the TST [1] | immobility in the FST [2] | SDS-induced social avoidance (time spend interacting, TSI) [3] | UCMS-induced immobility in the TST [4] | sucrose preference (% of sugar of total consumption) [4] | duration of administration after which antidepressant action in the SDS test [5] | tail suspension-induced Elk1 phosphorylation in mPFCx [6] | UCMS-induced body weight loss [4, 9] | UCMS-induced degradation of the coat state [4, 9] | stress induced elevation of plasma corticosterone ([7]; immediately after 30-min restraint stress, injected 1 h30 before) | basal plasma level corticosterone ([7]; non-stressed mice) | tail suspension-induced ERK phosphorylation [8] | duration of administration after which active in the SDS test [3]
CNCCCN1c2ccccc2CCc2ccccc21 [desipramine, reference compound] | of similar magnitude of that of fluoxetine and desipramine | antidepressant-like effects similar to the classical antidepressant desipramine | did not have any effect |  |  |  |  |  |  |  |  |  | 
CNCCC(Oc1ccc(C(F)(F)F)cc1)c1ccccc1 (stereo not shown) [fluoxetine, reference compound] | of similar magnitude of that of fluoxetine and desipramine |  |  | similarly to the reference antidepressant fluoxetine | similarly to the reference antidepressant fluoxetine |  |  |  |  |  |  |  | 
CN(C)CCCN1c2ccccc2CCc2ccccc21 [imipramine] |  |  |  |  |  | 39 days |  |  |  |  |  |  | 
GRKKRRQRRRPPSPAKLSFQFPSSGSAQVHI (selective peptide inhibitor of Elk-1 activation - TAT-DEF-Elk-1) [TAT-DEF-Elk-1 peptide] | reduced immobility in the TST similar to classical antidepressants | induced antidepressant-like effects in the FST | fully reverses this behaviour | reduced UPMS-induced immobility in the TST | fully restored UCMS-blunted sucrose preference |  | reduces selectively tail suspension-induced Elk1 phosphorylation | reversed the progressive weight loss induced by UCMS | diminished the degradation of the coat state | markedly reduces stress induced-elevations in plasma level corticosterone | does not affect basal plasma level corticosterone | does not inhibit tail suspension-induced ERK phosphorylation | 15 days
